In patent EP4585599A1, “NITROGEN-CONTAINING FUSED RING COMPOUND, INTERMEDIATE THEREOF, PREPARATION METHOD THEREFOR AND USE THEREOF” (Hangzhou Synrx Therapeutics Biomedical Technology Co., Ltd., priority 2022, dated 2024):
≈ marks a conversion by molar mass, not a printed value. Like-named read-outs stand apart in the source and are kept apart here.

Tests used:
[1] = molecular target: T1, helicase domain of the Pol θ protein (Homo sapiens, UniProt O75417); assay: Biochemical Activity Assay (ADP Glo Assay) of Pol θ inhibitor, ATPase activity
T1 construct: The helicase domain of the Pol θ protein was purified from insect protein expression system; made in house; host or cells: insect protein expression system

[2] = Metabolic stability of mouse liver microsome assay; details: liver microsomes, pH 7.4
[3] = Mouse PK assay after oral administration; details: for Time to peak / Area under curve (0-t; hr * ng/mL) / Peak concentration: mice, oral, administration dose 30 mg/kg; for Area under curve (0-t; hr * ng/mL) / Peak concentration / MRT / half-life: plasma; for MRT / half-life: mouse, po, 30 mg/kg
[4] = Solubility assay; details: pH 7.4, aqueous buffer, kinetic from dmso stock
[5] = cells; details: Homo sapiens, DLD-1, 240 h
[6] = mouse, microsomes

T1 sequence (O75417 102-554 limits assumed): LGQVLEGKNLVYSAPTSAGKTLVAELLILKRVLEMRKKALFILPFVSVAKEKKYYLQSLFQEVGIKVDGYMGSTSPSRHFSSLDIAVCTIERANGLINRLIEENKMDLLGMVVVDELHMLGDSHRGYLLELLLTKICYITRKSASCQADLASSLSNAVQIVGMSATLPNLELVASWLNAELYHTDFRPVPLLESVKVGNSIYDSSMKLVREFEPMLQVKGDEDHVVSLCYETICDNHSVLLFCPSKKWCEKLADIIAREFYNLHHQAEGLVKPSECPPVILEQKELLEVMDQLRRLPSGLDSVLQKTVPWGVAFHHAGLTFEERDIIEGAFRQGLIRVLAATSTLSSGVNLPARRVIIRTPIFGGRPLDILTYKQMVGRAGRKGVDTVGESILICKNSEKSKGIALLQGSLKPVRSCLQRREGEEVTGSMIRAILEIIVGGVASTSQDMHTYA

Row | IC50 ([1]; ADP-Glo assay, ATPase activity of Pol θ helicase domain, ssDNA substrate; read-out: Biochemical assay IC50) [nM] | Half-life (T1/2, min) [6] | MRT ([3]; male, ICR) [h] | half-life ([3]; male, ICR) [h] | solubility at 2 h ([4]; phosphate buffer) [µM] | Structure (SMILES) | IC50 ([1]; read-out: Biochemical assay IC50; ADP-Glo assay, ATPase activity of Pol θ helicase domain, ssDNA substrate) [nM] | half-life at 1 µM [2] [h] | Time to peak [3] [h] | Area under curve (0-t; hr * ng/mL) [3] [µg·h/mL] | Peak concentration [3] [ng/mL] | MRT [3] [h] | half-life [3] [h] | solubility ([4]; 0.1 m sodium phosphate buffer) [µM] | IC50 ([5]; read-out: Cell viability assay IC50 (nM)) [nM] | IC50 ([5]; read-out: Cell viability assay IC50 (nM), CTG assay, CellTiter Glo, read on Day 10, cell line not given) [nM]
1 | – | – | – | – | – | COc1cnc(Cl)cc1-c1cc(C)ncc1C(=O)Nc1nc2cnc(-c3c(C)noc3C)cc2s1 [Example 155] | 5.75 | 11.6 | 1.0 | 321.917 | 43083 | 4.56 | 2.26 | 7.81 (≈ 3.96 µg/mL) | 19.2 | –
2 | 1.63 | ∞ | 2.88 | 1.75 | 91.1 (≈ 47.6 µg/mL) | COc1cnc(C(F)F)cc1-c1cc(C)ncc1C(=O)Nc1nc2cnc(-c3c(C)nnn3C)cc2s1 [Example 180, 2'-(difluoromethyl)-N-(6-(1,4-dimethyl-1H-1,2,3-triazol-5-yl)thiazolo[4,5-c]pyridin-2-yl) -5'-methoxy-6-methyl-[4,4'-bipyridine]-3-carboxamide] | – | – | 1.08 | 176.788 | 44133 | – | – | – | – | 5.62
